Measured values as given in US20050176655A1, “Novel macrolide derivatives havaing effect of potentiating antifungal activity” (priority 2002, published 2005).

Experiments:
[1] = tested on: Candida albicans ATCC 64548; assay: Paper disk method, enhancing action for activities of azole antifungal agents; type: cell-based; conditions: 24 hours; for Inhibition activity (inhibition ring mm) C. albicans ATCC 64548 GYM / Transparency of the inhibition ring C. albicans ATCC 64548 GYM: miconazole 0.03 μg/ml
Description: (§1) Test organisms used were Candida albicans ATCC 64548, fluconazole resistant Candida albicans ATCC 64550 and Aspergillus niger ATCC 6275. Candida spp. were cultured in Waksman broth (glucose 2.0%, peptone 0.5%, dry yeast 0.3%, meat extract 0.5%, NaCl 0.5% and CaCO3 0.3%, pH 7.0) at 27° C. for 40 hours, then 0.1% thereof was inoculated on GY agar medium (glucose 1.0%, yeast extract 0.5% and agar 0.8%, pH 6.0). Spore suspension 0.2% of Aspergillus niger ATCC 6275 was inoculated on GY agar medium.
(§2) Azole antifungal agents used were miconazole (Sigma Inc., the U.S.) and fluconazole (ICN Pharmaceuticals, Inc., the U.S.), and were added at concentrations without affecting growth on each test organisms follows.
Candida albicans ATCC 64548: miconazole 0.03 μg/ml or fluconazole 0.5 μg/ml.
(§3) In the above medium, a medium added with miconazole to GY medium (control) is designated as GYM, and a medium added with fluconazole is designated as GYF. Activities were assessed by means of paper disk method (thickness: 8 mm, ADVANTEC MFS INC., Japan). Diameter of inhibition ring is expressed with mm unit after culturing Candida spp. for 24 hours and Aspergillus niger ATCC 6275 for 48 hours. Transparency of the inhibition ring is assessed with 5 degrees of A, B, C, D and E (transparence<A<B<C<D<E<opaque).

[2] = tested on: Aspergillus niger ATCC 6275; assay: as above; type: cell-based; conditions: 48 hours; for Inhibition activity (inhibition ring mm) A. niger ATCC 6275 GYF / Transparency of the inhibition ring A. niger ATCC 6275 GYF: fluconazole 10 μg/ml; for Inhibition activity (inhibition ring mm) A. niger ATCC 6275 GYM / Transparency of the inhibition ring A. niger ATCC 6275 GYM: 100 μg/8 mm disk, miconazole 0.1 μg/ml
Description: as §1, §2
Aspergillus niger ATCC 6275: miconazole 0.1 μg/ml or fluconazole 10 μg/ml.
as §3

[3] = 50 μg/8 mm disk, GYF, fluconazole 0.5 μg/ml

Structure (SMILES) | Inhibition activity (inhibition ring mm) C. albicans ATCC 64548 GYF [1, 3] [mm] | Transparency of the inhibition ring C. albicans ATCC 64548 GYF [1, 3] | Inhibition activity (inhibition ring mm) C. albicans ATCC 64548 GYM ([1]; 50 μg/8 mm disk) [mm] | Transparency of the inhibition ring C. albicans ATCC 64548 GYM ([1]; 50 μg/8 mm disk) | Inhibition activity (inhibition ring mm) A. niger ATCC 6275 GYF ([2]; 10 μg/8 mm disk) [mm] | Transparency of the inhibition ring A. niger ATCC 6275 GYF ([2]; 10 μg/8 mm disk) | Inhibition activity (inhibition ring mm) A. niger ATCC 6275 GYF ([2]; 50 μg/8 mm disk) [mm] | Transparency of the inhibition ring A. niger ATCC 6275 GYF ([2]; 50 μg/8 mm disk) | Inhibition activity (inhibition ring mm) C. albicans ATCC 64548 GYM ([1]; 10 μg/8 mm disk) [mm] | Transparency of the inhibition ring C. albicans ATCC 64548 GYM ([1]; 10 μg/8 mm disk) | Inhibition activity (inhibition ring mm) A. niger ATCC 6275 GYM [2] [mm] | Transparency of the inhibition ring A. niger ATCC 6275 GYM [2]
CCC1OC(=O)C(C)C(OC2CC(C)(OC)C(O)C(C)O2)C(C)C(OC2OC(C)CC(N(C)C)C2O)C(C)(O)CC(C)C(=NOCC=CCNCCN)C(C)C(O)C1(C)O (stereo not shown) [Compound 763, 9(E)-4-(aminoethylamino)-2-butenyloxime-erythromycin A] | 10 | D (Growth of test organism was inhibited 35% or more and 55% or less.) | 16 | C (Growth of test organism was inhibited 55% or more and 75% or less.) | 12 | E (Growth of test organism was inhibited 35% or less.) | 15 | E (Growth of test organism was inhibited 35% or less.) |  |  |  | 
CCC1OC(=O)C(C)C(OC2CC(C)(OC)C(O)C(C)O2)C(C)C(OC2OC(C)CC(N(C)CCN(C)C3CC(C)OC(OC4C(C)C(OC5CC(C)(OC)C(O)C(C)O5)C(C)C(=O)OC(CC)C(C)(O)C(O)C(C)C(=O)C(C)CC4(C)OC)C3O)C2O)C(C)(OC)CC(C)C(=O)C(C)C(O)C1(C)O (stereo not shown) [Compound 753, 3′-de-N-methyl-3′-N-{2-amino-(3′-de-N-methyl-clarythromycin A)}ethyl-clarythromycin] |  |  | 22 | C (Growth of test organism was inhibited 55% or more and 75% or less.) |  |  |  |  | 17 | C (Growth of test organism was inhibited 55% or more and 75% or less.) | 13 | E (Growth of test organism was inhibited 35% or less.)
CC[C@H]1OC(=O)[C@H](C)[C@@H](O[C@H]2C[C@@](C)(OC)[C@@H](O)[C@H](C)O2)[C@H](C)[C@@H](O[C@@H]2O[C@H](C)C[C@H](N(C)C/C=C/CO/N=C3\[C@H](C)C[C@@](C)(O)[C@H](O[C@@H]4O[C@H](C)C[C@H](N(C)C)[C@H]4O)[C@@H](C)[C@H](O[C@H]4C[C@@](C)(OC)[C@@H](O)[C@H](C)O4)[C@@H](C)C(=O)O[C@H](CC)[C@@](C)(O)[C@H](O)[C@H]3C)[C@H]2O)[C@](C)(O)C[C@@H](C)C(=O)[C@H](C)[C@@H](O)[C@]1(C)O [Compound 765, 3′-de-N-methyl-3′-N-{4-9(E)oxime-erythro-mycin A}-2(E)-butenyl-erythromycin A] |  |  | 14 | E (Growth of test organism was inhibited 35% or less.) | 14 | E (Growth of test organism was inhibited 35% or less.) | 21 | E (Growth of test organism was inhibited 35% or less.) |  |  | 14 | E (Growth of test organism was inhibited 35% or less.)
CCC1OC(=O)C(C)C(OC2CC(C)(OC)C(O)C(C)O2)C(C)C(OC2OC(C)CC(N(C)C)C2O)C(C)(O)CC(C)C(=NOCC=CCN2CCNCC2)C(C)C(O)C1(C)O (stereo not shown) [Compound 762] |  |  | 13 | D (Growth of test organism was inhibited 35% or more and 55% or less.) | 14 | E (Growth of test organism was inhibited 35% or less.) | 15 | E (Growth of test organism was inhibited 35% or less.) |  |  |  | 
